US7875607B2, “7,8-bicycloakyl-chroman derivatives” (Ampere Life Sciences, Inc., priority 2004, dated 2011)

Experiments:
Type in all cases: cell-based
[1] = system: ELAM (E-selectin) expression in endothelial cells; experiment: Cell-ELAM assay; conditions: 10 μg/ml LPS and 100 pg/ml IL-1β, 6 hours
Source text: In vitro cell-based assays for inflammation are well known in the art, for example e-selectin (also named Endothelial Leukocyte Adhesion Molecule or ELAM) or C-reactive protein (CRP). The ELAM assay measures in vitro activity of the test compounds in reducing expression of ELAM in activated endothelial cells. Briefly, endothelial cells are […] by adding known activators such as lipopolysaccharides, TNF or IL-1, alone or in some combination. Activated cells produce ELAM, which can be measured using, for example, an E-selectin monoclonal antibody-based ELISA assay. Similarly the CRP assay measures in vitro activity of test compounds in reducing expression of CRP in Human Hep3B epithelial cells. The activated cells produce CRP, which can be measured with a CRP ELISA assay.
Endothelial-Leukocyte Adhesion Molecule (ELAM), also known as E-selectin, was expressed on the surface of endothelial cells. In this assay, lipopolysaccharide (LPS) and IL-1β were used to stimulate the expression of ELAM; test agents were tested for their abilities to reduce this expression, in accordance with studies showing that reduction of leukocyte adhesion to endothelial cell surface was associated with decreased cellular damage (e.g., Takada, M., Et al., Transplantation 64: 1520-25, 1997; Steinberg, J. B., et al., J. Heart Lung Trans. 13:306-313, 1994).
Endothelial cells may be selected from any of a number of sources and cultured according to methods known in the art; including, for example, coronary artery endothelial cells, human brain microvascular endothelial cells (HBMEC; Hess, D. C., et al., Neurosci. Lett. 213(1): 37-40, 1996), or lung endothelial cells. Cells were conveniently cultured in 96-well plates. Cells were stimulated by adding a solution to each well containing 10 μg/ml LPS and 100 pg/ml IL-1β for 6 hours in the presence of test agent (specific concentrations and time may be adjusted depending on the cell type) Treatment buffer was removed and replaced with pre-warmed Fixing Solution® (100 μl/well) for 25 minutes at room temperature. Cells were then washed 3×, then incubated with Blocking Buffer (PBS+2% FBS) for 25 minutes at room temperature. Blocking Buffer containing Monoclonal E-Selectin Antibody (1:750, Sigma Catalog # S-9555) was added to each well. Plates were sealed and stored at 4° overnight. Plates were washed 4× with 160 μL Blocking Buffer per well. Second Antibody-HRP diluted 1:5000 in Blocking Buffer was then added (100 μL/well), and plates were incubated at room temperature (protected from light) for two hours. Plates were then washed 4× with Blocking Buffer before addition of 100 μL of ABTS Substrate solution at room temperature (Zymed, Catalog # 00-2024). Wells were allowed to develop for 35 minutes, before measurement at 402 nm in a Fluoroskan® Reader with shake program for 10 seconds. Positive results were recorded as a decrease in ELAM concentration in tested wells, as compared to control wells.

[2] = system: LTB4 release from MPRO cell line; experiment: LTB4-cell assay; conditions: Mus musculus; differentiated MPRO cells, 1 μM A23187, 1 hour; read-out: EC50, inhibition of LTB4
Method in brief: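 Mouse MPRO cells differentiated 72 hours with 10 μM all-trans retinoic acid, then stimulated 1 hour at 37° C with 1 μM A23187 plus compound (5 concentrations from 10 μM, quadruplicate). Supernatant LTB4 measured by competitive EIA; unstimulated cells as negative control.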

[3] = system: dopaminergic neuronal cell line; experiment: High glutamate-induced oxidative stress assay (HGOS); conditions: Mus musculus; 30 mM glutamate, 16 hrs; read-out: EC50, protection against HGOS cell injury and cell death
Method in brief: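 Mouse dopaminergic cells (passage ≤ p11) were grown 72 h at 33 °C, washed in HBSS, then exposed 16 h at 37 °C to compounds in DMEM-No Glu with 1 mM glucose and 30 mM glutamate. Surviving cells were stained 30 min with 5 μM Cell Tracker Green and fluorescence read at 485/538 nm.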

SMILES | EC50 [1] | EC50 [2] | EC50 [3]
CC1(CCCSc2nccs2)CCc2cc(O)c3c(c2O1)C1CCC3C1 (centres unmarked) [2-Methyl-2-[3-(thiazol-2-ylsulfanyl)-propyl]-3,4,7,8,9,10-hexahydro-7,10-methano-2H-benzo[h]chromen-6-ol] | ≤ 30 µM | ≤ 5 µM | ≤ 1 µM
CC1(C)CCc2cc(O)c3c(c2O1)C1CCC3CC1 [2,2-Dimethyl-3,4,7,8,9,10-hexahydro-7,10-ethano-2H-benzo[h]chromen-6-ol] | ≤ 30 µM | ≤ 5 µM | –
CC(C)=CCc1c(O)c2c(c3c1CCC(C)(C)O3)C1CCC2C1 (centres unmarked) [2,2-Dimethyl-5-(3-methyl-but-2-enyl)-3,4,7,8,9,10-hexahydro-7,10-methano-2H-benzo[h]chromen-6-ol] | ≤ 30 µM | – | ≤ 1 µM
CC1(CCCCl)CCc2cc(O)c3c(c2O1)C1CCC3C1 (centres unmarked) [2-(3-Chloro-propyl)-2-methyl-3,4,7,8,9,10-hexahydro-7,10-methano-2H-benzo[h]chromen-6-ol] | ≤ 30 µM | ≤ 5 µM | ≤ 1 µM
CC(C)CSCCCC1(C)CCc2cc(O)c3c(c2O1)C1CCC3C1 (centres unmarked) [2-(3-isobutylsulfanyl-propyl)-2-methyl-3,4,7,8,9,10-hexahydro-7,10-methano-2H-benzo[h]chromen-6-ol] | ≤ 30 µM | ≤ 5 µM | ≤ 1 µM
CC1(C)C=Cc2cc(O)c3c(c2O1)C1CCC3CC1 [2,2-Dimethyl-7,8,9,10-tetrahydro-7,10-ethano-2H-benzo[h]chromen-6-ol] | – | ≤ 5 µM | ≤ 1 µM
CC(C)CCc1c(O)c2c(c3c1CCC(C)(C)O3)C1CCC2C1 (centres unmarked) [2,2-Dimethyl-5-(3-methyl-butyl)-3,4,7,8,9,10-hexahydro-7,10-methano-2H-benzo[h]chromen-6-ol] | ≤ 30 µM | – | ≤ 1 µM
